Experimental findings from patent publication US20260207621A1 (Vividion Therapeutics, Inc., priority 2022, published 2026) are described below.

Each structure is given as a SMILES string. pIC50: −log10 of the molar value.

The test system of one test is Nrf2. Kind of test: Nrf2 antagonism assay: ARE luciferase reporter in KYSE-70 cells. The class given is cell-based. Conditions: positive Imax corresponds to Nrf2 antagonism; for Emax: Homo sapiens, KYSE-70, KYSE-70 cells, read-out: KYSE70 Cellular ARE Luciferase Imax (%); for KYSE70 Cellular ARE Luciferase Imax (%): KYSE-70 cells. In a few lines:
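Dose-response curves give IC50 and Imax, with positive Imax read as Nrf2 antagonism, i.e. reduced luciferase signal. Reporter cells are Nrf2-high KYSE-70 (Nrf2 W24C mutant) bearing ARE-controlled luciferase. Antagonists are proposed to act at KEAP1 C151, speeding Nrf2 degradation.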
In general terms: In a reporter assay the amount or activity of a reporter protein is the signal.

The target of another test is T1, KEAP1 C151 (Homo sapiens, UniProt Q14145).
T1 construct: treating 500 μg of cell lysate generated from MDA-MB-468 breast cancer cells with DMSO or compound; endogenous in cells; host or cells: MDA-MB-468 breast cancer cell lysate
T1 sequence (Q14145 whole entry): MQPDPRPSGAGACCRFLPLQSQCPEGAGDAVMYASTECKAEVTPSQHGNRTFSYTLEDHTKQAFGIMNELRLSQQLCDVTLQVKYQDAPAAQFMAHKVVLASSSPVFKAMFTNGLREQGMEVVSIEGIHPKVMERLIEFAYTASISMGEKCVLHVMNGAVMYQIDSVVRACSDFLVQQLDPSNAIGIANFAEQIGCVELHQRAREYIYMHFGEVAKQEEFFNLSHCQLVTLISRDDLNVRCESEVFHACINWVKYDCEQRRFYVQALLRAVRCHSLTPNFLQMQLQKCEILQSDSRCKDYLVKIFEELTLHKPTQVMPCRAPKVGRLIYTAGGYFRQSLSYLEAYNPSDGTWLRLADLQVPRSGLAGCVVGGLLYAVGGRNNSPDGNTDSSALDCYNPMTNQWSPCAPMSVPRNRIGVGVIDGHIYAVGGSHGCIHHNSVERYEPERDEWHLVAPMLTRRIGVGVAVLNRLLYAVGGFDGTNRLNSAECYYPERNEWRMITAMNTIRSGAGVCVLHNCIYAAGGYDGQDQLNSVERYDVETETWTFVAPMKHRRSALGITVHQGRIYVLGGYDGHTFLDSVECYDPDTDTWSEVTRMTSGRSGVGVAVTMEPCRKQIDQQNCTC
Kind of test: Nrf2 TMT measurement: in vitro TE50 for KEAP1 C151 (IA-DTB competition, targeted TMT mass spectrometry) in MDA-MB-468 cell lysate. The class given is binding. Conditions: in vitro target engagement of KEAP1 C151, targeted TMT, read-out: KEAP1_C151 TE50. In a few lines:
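Occupancy of KEAP1 C151 measured as loss of IA-DTB labeling (200 μM, 1 h, room temperature) after 1 h compound pre-treatment of MDA-MB-468 cell lysate.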

For the compound `C=CC(=O)N1CC(C)(C)OC[C@H]1c1cc(Cl)cc(-c2cc(C)ncn2)c1` (single isomer, unassigned) [Compound 46], the Emax in the test with Nrf2 was determined as 84%. Besides, the pIC50 at KEAP1 C151 was 6.85.
The like results for `C=CC(=O)N1CCOCC1c1cc(Cl)cc(-c2ccnc(N)n2)c1` (single isomer, unassigned) [Compound 40, 1-(3-(3-(2-aminopyrimidin-4-y1)-5-chlorophenyl)morpholino)prop-2-en-1-one] were, in that order, 93% and 7.40.
As to `C=CC(=O)N1C[C@@H](C)N(C(C)=O)C[C@@H]1c1cc(Cl)cc(-c2ncc(N)cn2)c1` (single isomer, unassigned) [Compound 236], the “KYSE70 Cellular ARE Luciferase Imax (%)” value in the test on Nrf2 came out at 87%. Further, the pIC50 at KEAP1 C151 was 7.60.
For `C=CC(=O)N1CC(C)(C)OC[C@H]1c1cc(Cl)cc(-c2ncnc(N)n2)c1` (single isomer, unassigned) [Compound 66], the Emax in the test with Nrf2 stood at 93%. Moreover, the pIC50 on KEAP1 C151 was 7.64.
For `C=CC(=O)N1CCOC[C@H]1c1cc(Cl)cc(C2CNC(=S)N(C)C2)c1` (single isomer, unassigned) [Compound 227], the “KYSE70 Cellular ARE Luciferase Imax (%)” value in the test with Nrf2 stood at 90%. Also, the pIC50 on KEAP1 C151 is 7.02.
`C=CC(=O)N1CCN(C(C)=O)C[C@H]1c1cc(Cl)cc(-c2ncc(N)cn2)c1` (single isomer, unassigned) [Compound 188]: the Emax in the test with Nrf2 came to 86%. Moreover, the pIC50 at KEAP1 C151 was 7.74.
The like results for `C=CC(=O)N1CCS(=O)(=O)CC1c1cc(Cl)cc(-c2nccc(N)n2)c1` (single isomer, unassigned) [Compound 209, 1-(3-(3-(4-aminopyrimidin-2-yl)-5-chlorophenyl)-1,1-dioxidothiomorpholino)prop-2-en-1-one] were, in that order, 93% and 7.09.
Taken in the same sequence, the figures for `C=CC(=O)N1CCOCC1c1cc(Cl)cc(-c2nc[nH]n2)c1` (single isomer, unassigned) [Compound 41, 1-(3-(3-chloro-5-(1H-1,2,4-triazol-3-yl)phenyl)morpholino)prop-2-en-1-one] were 68% and 6.70.
Taken in the same sequence, the figures for `C=CC(=O)N1CC(C)(C)OC[C@H]1c1cc(Cl)cc(-c2ncc(N)c(N)n2)c1` (single isomer, unassigned) [Compound 287] were 96% and 6.96.
Consider `C=CC(=O)N1CCOCC1c1cc(Cl)cc(C2CCOCC2)c1` (single isomer, unassigned) [Compound 5, 1-(3-(3-chloro-5-(tetrahydro-2H-pyran-4-yl)phenyl)morpholino)prop-2-en-1-one], for which, in the test with Nrf2, the Emax was determined as 70%. Also, the pIC50 at KEAP1 C151 was 6.89.
As for `C=CC(=O)N1[C@H](C)COC[C@H]1c1cc(Cl)cc(-c2ncnc(N)n2)c1` (single isomer, unassigned) [Compound 102], the Emax with Nrf2 turned out to be 92%. The pIC50 on KEAP1 C151 is 7.36.
The like results for `C=CC(=O)N1CCOCC1c1cc(Cl)cc(-c2ccnnc2)c1` (single isomer, unassigned) [Compound 14, 1-(3-(3-chloro-5-(pyridazin-4-yl)phenyl)morpholino)prop-2-en-1-one] were, in that order, 55% and 6.84.
In the case of `C=CC(=O)N1C[C@@H](C)N(C(=O)C2CC2)C[C@@H]1c1cc(Cl)cc(-c2ncc(N)cn2)c1` (single isomer, unassigned) [Compound 243], in the test on Nrf2, the Emax was determined as 88%. Further, the pIC50 at KEAP1 C151 was 7.66.
With `C=CC(=O)N1CCOCC1c1cc(Cl)nc(-c2cc(C#N)ncn2)c1` (single isomer, unassigned) [Compound 129, 6-(4-(4-acryloylmorpholin-3-yl)-6-chloropyridin-2-yl)pyrimidine-4-carbonitrile], the Emax in the test with Nrf2 was 84%. For the same compound, the pIC50 at KEAP1 C151 was 7.10.
As for `C=CC(=O)N1CCS(=O)(=O)CC1c1cc(Cl)cc(-c2nnn(C)n2)c1` (single isomer, unassigned) [Compound 32, 1-(3-(3-chloro-5-(2-methyl-2H-tetrazol-5-yl)phenyl)-1,1-dioxidothiomorpholino)prop-2-en-1-one], the Emax with Nrf2 is 52%. The pIC50 on KEAP1 C151 is 7.20.
Taken in the same sequence, the figures for `C=CC(=O)N1CCOC[C@H]1c1cc(Cl)cc(-c2cccc(C)n2)c1` (single isomer, unassigned) [Compound 98] were 76% and 7.59.
Taken in the same sequence, the figures for `C=CC(=O)N1CCOC[C@H]1c1cc(Cl)cc(-c2ncc(N)c(F)n2)c1` (single isomer, unassigned) [Compound 278] were 87% and 8.21.
The like results for `C=CC(=O)N1CC(C)(C)OCC1c1cc(Cl)nc(-c2ccnc(C)n2)c1` (single isomer, unassigned) [Compound 120, 1-(5-(2-chloro-6-(2-methylpyrimidin-4-yl)pyridin-4-yl)-2,2-dimethylmorpholino)prop-2-en-1-one] were, in that order, 77% and 6.96.
As for `C=CC(=O)N1CC(C)(C)OC[C@H]1c1cc(Cl)cc(-c2cc(N)ncn2)c1` (single isomer, unassigned) [Compound 149], the Emax with Nrf2 was determined as 95%. For the same compound, the pIC50 on KEAP1 C151 is 7.82.
The like results for `C=CC(=O)N1CCOC[C@H]1c1cc(Cl)cc(-c2ncnc(NC)n2)c1` (single isomer, unassigned) [Compound 214] were, in that order, 93% and 7.00.
As for `C=CC(=O)N1CCOCC1c1cc(Cl)cc(-c2cc(C(N)=O)ncn2)c1` (single isomer, unassigned) [Compound 107, 6-(3-(4-acryloylmorpholin-3-yl)-5-chlorophenyl)pyrimidine-4-carboxamide], the Emax in the test with Nrf2 was 92%. Moreover, the pIC50 on KEAP1 C151 is 7.74.
As to `C=CC(=O)N1CC(C)(C)OCC1c1cc(Cl)nc(-c2ccn3ccnc3c2)c1` (single isomer, unassigned) [Compound 78, 1-(5-(2-chloro-6-(imidazo[1,2-a]pyridin-7-yl)pyridin-4-yl)-2,2-dimethylmorpholino)prop-2-en-1-one], the Emax with Nrf2 worked out at 78%. Also, on KEAP1 C151, the pIC50 is 7.74.
The like results for `C=CC(=O)N1CC(C)(C)OCC1c1cc(Cl)nc(-c2ccc(F)c(C(N)=O)c2)c1` (single isomer, unassigned) [Compound 69, 5-(4-(4-acryloyl-6,6-dimethylmorpholin-3-yl)-6-chloropyridin-2-yl)-2-fluorobenzamide] were, in that order, 82% and 7.05.
Taken in the same sequence, the figures for `C=CC(=O)N1CCN(C(C)=O)C[C@H]1c1cc(Cl)cc(-c2ccc(F)c(C(N)=O)c2)c1` (single isomer, unassigned) [Compound 79] were 85% and 7.74.
The like results for `C=CC(=O)N1CC2(CC2)S(=O)(=O)CC1c1cc(Cl)cc(-c2nccc(N)n2)c1` (single isomer, unassigned) [Compound 249, 1-(6-(3-(4-aminopyrimidin-2-yl)-5-chlorophenyl)-4,4-dioxido-4-thin-7-azaspiro[2.5]octan-7-yl)prop-2-en-1-one] were, in that order, 89% and 8.28.
`C=CC(=O)N1CCOCC1c1cc(Cl)cc(-c2ccncn2)c1` (single isomer, unassigned) [Compound 42, 1-(3-(3-chloro-5-(pyrimidin-4-yl)phenyl)morpholino)prop-2-en-1-one]: the Emax in the test with Nrf2 stood at 79%. Also, the pIC50 at KEAP1 C151 was 7.43.
